# Test system: Respiratory Syncytial Virus
# Assay: microbe, parasite or virus in culture
# Format: cell-based
# Conditions: RSV-infected HeLa cells, MTT readout seven days after infection; −log of EC50 in molar units
# Text: In vitro Screening for Activity against Respiratory Syncytial Virus.
# The percent protection against cytopathology caused by viruses (antiviral activity or EC50) achieved by tested compounds and their cytotoxicity (CC50) are both calculated from dose-response curves. The selectivity of the antiviral effect is represented by the selectivity index (SI), calculated by dividing the CC50 (cytotoxic dose for 50% of the cells) by the EC50 (antiviral activity for 50% of the cells).
# Automated tetrazolium-based colorimetric assays were used for determination of EC50 and CC50 of test compounds. Flat-bottom, 96-well plastic microtiter trays were filled with 180 μl of Eagle's Basal Medium, supplemented with 5% FCS (0% for FLU) and 20 mM Hepes buffer. Subsequently, stock solutions (7.8× final test concentration) of compounds were added in 45 μl volumes to a series of triplicate wells so as to allow simultaneous evaluation of their effects on virus- and mock-infected cells. Five five-fold dilutions were made directly in the microtiter trays using a robot system. Untreated virus controls, and HeLa cell controls were included in each test. Approximately 100 TCID50 of Respiratory Syncytial Virus was added to two of the three rows in a volume of 50 μl. The same volume of medium was added to the third row to measure the cytotoxicity of the compounds at the same concentrations as those used to measure the antiviral activity. After two hours of incubation, a suspension (4×10^5 cells/ml) of HeLa cells was added to all wells in a volume of 50 μl. The cultures were incubated at 37° C. in a 5% CO2 atmosphere. Seven days after infection the cytotoxicity and the antiviral activity was examined spectrophotometrically. To each well of the microtiter tray, 25 μl of a solution of MTT (3-(4,5-dimethylthiazol-2-yl)-2,5-diphenyltetrazolium bromide) was added. The trays were further incubated at 37° C. for 2 hours, after which the medium was removed from each cup. Solubilization of the formazan crystals was achieved by adding 100 μl 2-propanol. Complete dissolution of the formazan crystals were obtained after the trays have been placed on a plate shaker for 10 min. Finally, the absorbances were read in an eight-channel computer-controlled photometer (Multiskan MCC, Flow Laboratories) at two wavelengths (540 and 690 nm). The absorbance measured at 690 nm was automatically subtracted from the absorbance at 540 nm, so as to eliminate the effects of non-specific absorption.
row,Structure (SMILES),Activity
1,Cc1ccc(O)c(Cn2c(NCCCN3CCOCC3)nc3ccc(CN(CCO)c4ccccc4)cc32)n1 [Compound 97],8.5
2,C#Cc1cccc(N(CCO)Cc2ccc3nc(NCCCN4CCOCC4)n(Cc4nc(C)ccc4O)c3c2)c1 [Compound 99],8.5
3,Cc1cccc(N(CCN(C)C)Cc2ccc3nc(NCCCN4CCOCC4)n(Cc4nc(C)ccc4O)c3c2)c1 [Compound 100],8.4
4,Cc1ccc(O)c(Cn2c(NCCCN3CCOCC3)nc3ccc(CN(CC(N)=O)c4ccccc4CCO)cc32)n1 [Compound 101],8.3
5,Cc1ccc(O)c(Cn2c(NCCCN3CCOCC3)nc3ccc(CN(CCN4CCOCC4)c4ccccc4CCO)cc32)n1 [Compound 103],8.2
6,Cc1ccc(O)c(Cn2c(NCCCN3CCOCC3)nc3ccc(CN(c4ccccc4)c4ccc(O)cc4)cc32)n1 [Compound 106],8.1
7,Cc1ccc(O)c(Cn2c(NCCCN3CCOCC3)nc3ccc(CN(CCO)c4ccccc4CCO)cc32)n1 [Compound 107],8.1
8,Cc1ccc(O)c(Cn2c(NCCCN3CCOCC3)nc3ccc(CNc4ccccc4CN)cc32)n1 [Compound 108],8
9,Cc1ccc(O)c(Cn2c(NCCCN3CCOCC3)nc3ccc(CN(c4ccccc4)c4cccc(O)c4)cc32)n1 [Compound 109],7.9
10,Cc1ccc(O)c(Cn2c(NCCCN3CCOCC3)nc3ccc(CN(CCO)c4ccccc4C)cc32)n1 [Compound 110],7.8
11,Cc1cccc(NCc2ccc3nc(NC4CCN(CCN5CCOCC5)CC4)n(Cc4nc(C)ccc4O)c3c2)c1 [Compound 164],7.5
12,Cc1ccc(O)c(Cn2c(NC3CCN(CCN4CCOCC4)CC3)nc3c(C)cccc32)n1 [Compound 166],6.8
13,Cc1ccc(O)c(Cn2c(NC3CCN(CCN4CCOCC4)CC3)nc3cc(/C=C/c4ccccc4)ccc32)n1 [Compound 167],6.7
14,Cc1ccc(O)c(Cn2c(NC3CCN(CCN4CCOCC4)CC3)nc3ccc(CO)cc32)n1 [Compound 168],6.5
15,Cc1ccc(O)c(Cn2c(NCCCN3C[C@@H](C)O[C@@H](C)C3)nc3ccc(CO)cc32)n1 [Compound 175],6.2
16,Cc1ccc(O)c(Cn2c(NCCCN3CC(C)OC(C)C3)nc3ccc(CO)cc32)n1 (centres unmarked) [Compound 177],5.7
17,"Cc1cc(C)cc(N(CCCC(N)=O)Cc2ccc3nc(NCC(O)CN4CCOCC4)n(Cc4nc(C)ccc4O)c3c2)c1.Cl (centres unmarked) [Compound 178, 4-{(3,5-Dimethyl-phenyl)-[3-(3-hydroxy-6-methyl-pyridin-2-ylmethyl)-2-(2-hydroxy-3-morpholin-4-yl-propylamino)-3H-benzoimidazol-5-ylmethyl]-amino}-butyramide, HCl salt]",9.6
18,Cc1ccc(O)c(Cn2c(NCCCN3CCSCC3)nc3ccc(CO)cc32)n1 [Compound 182],7.1

# Same assay, conditions: human respiratory syncytial virus, 168 h; RSV-infected HeLa cells, MTT readout seven days after infection; −log of EC50 in molar units
row,Structure (SMILES),EC50
1,"Cc1cc(C)cc(NCc2ccc3c(c2)nc(NCCCN2CCCOCC2)n3Cc2nc(C)ccc2O)c1 [Compound 174, 2-[5-[(3,5-Dimethyl-phenylamino)-methyl]-2-(3-[1,4]oxazepan-4-yl-propylamino)-benzoimidazol-1-ylmethyl]-6-methyl-pyridin-3-ol]",2.51 nM
2,"Cc1cc(C)cc(NCc2ccc3nc(NCCCN4CCOC(CCO)C4)n(Cc4nc(C)ccc4O)c3c2)c1 (centres unmarked) [Compound 181, 2-(6-[(3,5-Dimethyl-phenylamino)-methyl]-2-{3-[2-(2-hydroxy-ethyl)-morpholin-4-yl]-propylamino}-benzoimidazol-1-ylmethyl)-6-methyl-pyridin-3-ol]",6.31 nM

# Same assay, conditions: pEC50 (−log of EC50 when expressed in molar units), protection against RSV cytopathology
row,Structure (SMILES),Activity
1,"COc1ccc(C)nc1Cn1c(NCCCN2CCOCC2)nc2ccc(CN(CCCC(N)=O)c3cc(C)cc(C)c3)cc21 [Compound 210, -{(3,5-Dimethyl-phenyl)-[3-(3-methoxy-6-methyl-pyridin-2-ylmethyl)-2-(3-morpholin-4-yl-propylamino)-3H-benzoimidazol-5-ylmethyl]-amino}-butyramide]",9
2,OCCCc1ccc(C(F)(F)F)cc1NCc1ccc2nc(NCCCN3CCOCC3)n(Cc3ncccc3O)c2c1 [Compound 216],8.7
3,OCCCc1ccc(C(F)(F)F)cc1NCc1ccc2nc(NCCCN3CCOCC3)n(Cc3cc(Br)ccc3O)c2c1 [Compound 217],8.7
4,COc1ccc(C)nc1Cn1c(NCCCN2CCOCC2)nc2ccc(CNc3cc(C)ccc3CCO)cc21 [Compound 220],8.6
5,Cn1cnc2c(Cn3c(NCCCN4CCOCC4)nc4ccc(CNc5ccccc5CCCO)cc43)cccc21 [Compound 224],8.5
6,Cc1ccc(CCCO)c(NCc2ccc3nc(NCCCN4CCOCC4)n(Cc4ccccc4O)c3c2)c1 [Compound 227],8.5
7,Cc1ccc(CCO)c(NCc2ccc3nc(NCCCN4CCOCC4)n(Cc4cccc5c4ncn5C)c3c2)c1 [Compound 229],8.4
8,Cn1cnc2c(Cn3c(NCCCN4CCOCC4)nc4ccc(CNc5cc(Br)ccc5CCCO)cc43)cccc21 [Compound 232],8.4
9,C#Cc1ccc(CCO)c(NCc2ccc3nc(NCCCN4CCOCC4)n(Cc4cccc5cccnc45)c3c2)c1 [Compound 235],8.3
10,C#Cc1ccc(CCO)c(NCc2ccc3nc(NCCCN4CCOCC4)n(Cc4cccc5c4ncn5C)c3c2)c1 [Compound 236],8.1
11,Cn1cnc2c(Cn3c(NCCCN4CCOCC4)nc4ccc(CNc5ccccc5CCO)cc43)cccc21 [Compound 237],7.9
12,Cn1cnc2c(Cn3c(NCCCN4CCOCC4)nc4ccc(CNc5ccccc5CCC(N)=O)cc43)cccc21 [Compound 238],7.9
13,COc1ccc(C)nc1Cn1c(NCCCN2CCOCC2)nc2ccc(CNc3ccccc3CCCO)cc21 [Compound 239],7.9
14,COc1ccc(C)nc1Cn1c(NCCCN2CCOCC2)nc2ccc(CN(CCO)c3cc(C)cc(C)c3)cc21 [Compound 240],7.9
15,Cn1cnc2c(Cn3c(NCCCN4CCOCC4)nc4ccc(CNc5cc(C(F)(F)F)ccc5CCCO)cc43)cccc21 [Compound 241],7.9
16,Cn1cnc2c(Cn3c(NCCCN4CCOCC4)nc4ccc(CNc5ccccc5CCN5CCOCC5)cc43)cccc21 [Compound 242],7.8
17,Cc1nc(C)c(Cn2c(NCCCN3CCOCC3)nc3ccc(CNc4ccccc4CCCO)cc32)nc1C [Compound 243],7.8

row,Structure (SMILES),Activity
1,Cc1ccc(CCCO)c(NCc2ccc3nc(NCCCN4CCOCC4)n(Cc4cccc(C)n4)c3c2)c1 [Compound 274],7.2
2,Cc1ccc(CCO)c(NCc2ccc3nc(NCCCN4CCOCC4)n(Cc4cccc(C)n4)c3c2)c1 [Compound 275],7.2
3,Cc1ccc(C)c(NCc2ccc3c(c2)nc(NCCCN2CCOCC2)n3C2CCCc3nc(C)c(C)nc32)c1 (centres unmarked) [Compound 276],7.2
4,Cc1cccc(NCc2ccc3nc(NCCCN4CCOCC4)n(Cc4cccc5c4ncn5C)c3c2)c1CCO [Compound 277],7.1
5,Cc1cc(C)cc(N(CCO)Cc2ccc3nc(NCCCN4CCOCC4)n(Cc4cccc(Br)n4)c3c2)c1.Cl [Compound 278],7.1
6,COc1ccc(C)nc1Cn1c(NCCCN2CCOCC2)nc2ccc(CNc3ccccc3CO)cc21 [Compound 279],7.1
7,COc1ccc(C)nc1Cn1c(NCCCN2CCOCC2)nc2ccc(CNc3ccc(C)cc3CO)cc21 [Compound 280],7.1
8,Cc1cc(C)cc(N(CCO)Cc2ccc3nc(NCCCN4CCOCC4)n(Cc4cccc(C)n4)c3c2)c1 [Compound 281],7.1
9,Cc1cccc(NCc2ccc3nc(NCCCN4CCOCC4)n(Cc4nc(C)c(C)nc4C)c3c2)c1CCO [Compound 282],7.1
10,Cc1cccc(NCc2ccc3nc(NCCCN4CCOCC4)n(Cc4nc(C)c(C)nc4C)c3c2)c1 [Compound 283],7.1
11,Cc1ccc(NCc2ccc3nc(NCCCN4CCOCC4)n(Cc4nc(C)c(C)nc4C)c3c2)c(CO)c1 [Compound 284],7.1
12,Cc1cccc(NCc2ccc3nc(NCCCN4CCOCC4)n(Cc4nc(C)c(C)nc4C)c3c2)c1CO [Compound 285],7.1
13,Cc1nc2c(nc1C)C(n1c(NCCCN3CCOCC3)nc3cc(CNc4ccccc4CCO)ccc31)CCC2 (centres unmarked) [Compound 286],7.1
14,Cc1nc2c(nc1C)C(n1c(NCCCN3CCOCC3)nc3cc(CNc4ccccc4CO)ccc31)CCC2 (centres unmarked) [Compound 287],7.1
15,Cn1cnc2c(Cn3c(NCCCN4CCOCC4)nc4ccc(CNc5ccccc5C(N)=O)cc43)cccc21 [Compound 288],7
16,Cc1nc(C)c(Cn2c(NCCCN3CCOCC3)nc3ccc(CNc4cc(Cl)cc(Cl)c4)cc32)nc1C [Compound 289],7
